# Laboratory results as given in patent US9233979B2, “Compounds that are ERK inhibitors” (Merck Sharp & Dohme Corp., priority 2012, dated 2016).
# Target: phosphorylated active hERK2 enzyme (Homo sapiens (Human), UniProt P28482)
# Test: Active Human ERK2 (hERK2) Activity Assay (IMAP-FP)
# Type: biochemical
# Details: Table 5, 0.5 nM hERK2, 30 μM ATP, 10 point titration, read-out: AERK2 IC50
# How it was run: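 IMAP detection beads in buffer with 24 mM NaCl stopped the reaction, and fluorescence polarization was read after 60 min binding.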
# phosphorylated active hERK2 enzyme, sequence (P28482 whole entry): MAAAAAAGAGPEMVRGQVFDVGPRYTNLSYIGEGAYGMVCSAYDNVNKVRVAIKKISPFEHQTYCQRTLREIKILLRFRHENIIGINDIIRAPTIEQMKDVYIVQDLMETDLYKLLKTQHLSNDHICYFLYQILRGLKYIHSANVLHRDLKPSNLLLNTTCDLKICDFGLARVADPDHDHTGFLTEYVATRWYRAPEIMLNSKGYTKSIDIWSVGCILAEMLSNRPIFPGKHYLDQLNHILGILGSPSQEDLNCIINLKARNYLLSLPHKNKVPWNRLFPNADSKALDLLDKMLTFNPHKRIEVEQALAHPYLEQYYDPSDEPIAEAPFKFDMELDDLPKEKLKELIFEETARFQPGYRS
row,IC50 [nM],Structure (SMILES)
1,7.85,"CNc1n[nH]c2cc(NC(=O)N[C@H](C)c3ccc(F)cc3)ncc12 [Example 1, 1-[(1R)-1-(4-Fluorophenyl)ethyl]-3-[3-(methylamino)-1H-pyrazolo[4,3-c]pyridin-6-yl]urea]"
2,105,"COCCNC(=O)Nc1cc2[nH]nc(N3CCCC3)c2cn1 [Example 9, 1-(2-methoxyethyl)-3-(3-pyrrolidin-1-yl-1H-pyrazolo[4,3-c]pyridin-6-yl)urea]"
3,1,"COC[C@@H](NC(=O)Nc1cc2[nH]nc(N3CCCC3)c2cn1)c1ccccc1 [Example 28, 1-[(1S)-2-methoxy-1-phenylethyl]-3-(3-pyrrolidin-1-yl-1H-pyrazolo[4,3-c]pyridin-6-yl)urea]"
4,51.6,"COC[C@H](C)NC(=O)Nc1cc2[nH]nc(N3CCOCC3)c2cn1 [Example 12, 1-[(1S)-2-methoxy-1-methylethyl]-3-(3-morpholin-4-yl-1H-pyrazolo[4,3-c]pyridin-6-yl)urea]"
5,8.75,"COC1CN(c2n[nH]c3cc(NC(=O)N[C@H](C)c4ccccc4)ncc23)C1 [Example 22, 1-[3-(3-methoxyazetidin-1-yl)-1H-pyrazolo[4,3-c]pyridin-6-yl]-3-[(1R)-1-phenylethyl]urea]"

# Same assay, conditions: Table 6, 0.5 nM hERK2, 30 μM ATP, 10 point titration, read-out: AERK2 IC50
row,IC50 [nM],Structure (SMILES)
1,0.9,"C[C@@H](NC(=O)Nc1cc2[nH]nc(NC3CC3)c2cn1)c1ccccc1 [Example 330, 1-[3-(cyclopropyl-amino)-1H-pyrazolo[4,3-c]pyridin-6-yl]-3-[(1R)-1-phenylethyl]urea]"
2,0.6,"COC(=O)Nc1n[nH]c2cc(NC(=O)N[C@H](COC(F)F)c3ccccc3)ncc12 [Example 288, methyl [6-({[(1S)-2-(difluoro-methoxy)-1-phenylethyl]-carbamoyl}amino)-1H-pyrazolo[4,3-c]pyridin-3-yl}-carbamate]"
3,64.3,"CC(CC(C)(C)O)Nc1n[nH]c2cc(NC(=O)N[C@H](C)c3ccccc3)ncc12 (stereo partly drawn) [Example 191, 1-{3-[(3-hydroxy-1,3-dimethylbutyl)-amino]-1H-pyrazolo[4,3-c]-pyridin-6-yl}-3-[(1R)-1-phenylethyl]urea]"
4,55,"COC(=O)Nc1n[nH]c2cc(NC(=O)N[C@@H]3CCOc4ccccc43)ncc12 [Example 295, methyl (6-{[(4R)-3,4-dihydro-2H-chromen-4-ylcarbamoyl]-amino}-1H-pyrazolo[4,3-c]-pyridin-3-yl)-carbamate]"
5,106,"COCc1nc(NC(=O)N[C@H](C)c2ccccc2)cc2[nH]nc(NC(C)=O)c12 [Example 72, (R)—N-(4-(methoxymethyl)-6-(3-(1-phenylethyl)ureido)-1H-pyrazolo[4,3-c]pyridin-3-yl)acetamide]"
6,2.1,"CNc1n[nH]c2cc(NC(=O)N[C@@H](c3ccccc3)[C@H]3CCCO3)ncc12 [Example 145, 1-(3-(methylamino)-1H-pyrazolo[4,3-c]pyridin-6-yl)-3-((S)-phenyl((R)-tetrahydrofuran-2-yl)methyl)urea]"
7,435,"Nc1n[nH]c2cc(NC(=O)N[C@H](c3ccccc3)[C@H]3CCCO3)ncc12 [Example 154, 1-(3-amino-1H-pyrazolo[4,3-c]pyridin-6-yl)-3-{(R)-phenyl[(2R)-tetrahydrofuran-2-yl]methyl}urea]"
8,2.9,"C[C@@H](NC(=O)Nc1cc2[nH]nc(N[C@H](C)C(F)F)c2cn1)c1ccccc1 [Example 355, 1-(3-{[(1R)-2,2-difluoro-1-methyl-ethyl]amino}-1H-pyrazolo[4,3-c]-pyridin-6-yl)-3-[(1R)-1-phenylethyl]urea]"
9,31.2,"C[C@@H](NC(=O)Nc1cc2[nH]nc(NC3CCC(N(C)C)CC3)c2cn1)c1ccccc1 (stereo partly drawn) [Example 172, 1-(3-{[4-(dimethylamino)-cyclohexyl]amino}-1H-pyrazolo[4,3-c]pyridin-6-yl)-3-[(1R)-1-phenylethyl]urea]"
10,4.6,"CC(NC(=O)Nc1cc2[nH]nc(N)c2cn1)c1ccc(F)c(F)c1 (stereo not drawn) [Example 275, 1-(3-amino-1H-pyrazolo[4,3-c]-pyridin-6-yl)-3-[1-(3,4-difluorophenyl)-ethyl]urea]"
11,354,"COC(=O)Nc1n[nH]c2cc(NC(=O)N[C@H](C)c3ccccc3)ncc12 [Example 220, (R)-methyl (6-(3-(1-phenylethyl)ureido)-1H-pyrazolo[4,3-c]pyridin-3-yl)carbamate]"
12,32,"CCNc1n[nH]c2cc(NC(=O)NCc3cccnc3N(C)C)ncc12 [Example 250, 1-{[2-(dimethyl-amino)pyridin-3-yl]methyl}-3-[3-(ethylamino)-1H-pyrazolo[4,3-c]-pyridin-6-yl]urea]"
13,732,"COc1cc([C@@H](C)NC(=O)Nc2cc3[nH]nc(NC(=O)N[C@H](C)c4ccc(Cl)c(OC)c4)c3cn2)ccc1Cl [Example 314, 1,1′-(1H-pyrazolo[4,3-c]pyridine-3,6-diyl)bis(3-((R)-1-(4-chloro-3-methoxyphenyl)ethyl)urea)]"
14,2.6,"C[C@@H](NC(=O)Nc1cc2[nH]nc(NC3CC[S+]([O-])C3)c2cn1)c1ccccc1 (stereo partly drawn) [Example 360, 1-{3-[(1-oxidotetrahydrothio-phen-3-yl)amino]-1H-pyrazolo[4,3-c]pyridin-6-yl}-3-[(1R)-1-phenylethyl]urea]"
15,3,"COC[C@@H](NC(=O)Nc1cc2[nH]nc(N)c2c(C)n1)c1ccccc1 [Example 335, 1-(3-amino-4-methyl-1H-pyrazolo[4,3-c]-pyridin-6-yl)-3-[(1S)-2-methoxy-1-phenylethyl]urea]"
16,16.1,"COC(=O)Nc1n[nH]c2cc(NC(=O)N[C@H](C)c3ccccc3)nc(C)c12 [Example 338, methyl [4-methyl-6-({[(1R)-1-phenyl-ethyl]carbamoyl}-amino)-1H-pyrazolo[4,3-c]-pyridin-3-yl]-carbamate]"

row,IC50 [nM],Structure (SMILES)
1,52,"C[C@@H]1CCN1c1n[nH]c2cc(NC(=O)N[C@H](C)c3ccccc3)ncc12 [Example 91, 1-{3-[(2R)-2-methylazetidin-1-yl]-1H-pyrazolo[4,3-c]-pyridin-6-yl}-3-[(1R)-1-phenylethyl]-urea]"
2,33.8,"CC(CN1CCOCC1)Nc1n[nH]c2cc(NC(=O)N[C@H](C)c3ccccc3)ncc12 (stereo partly drawn) [Example 175, 1-{3-[(1-methyl-2-morpholin-4-ylethyl)amino]-1H-pyrazolo[4,3-c]pyridin-6-yl}-3-[(1R)-1-phenylethyl]urea]"
3,1.4,"CC[C@@H](NC(=O)Nc1cc2[nH]nc(NC(=O)OC)c2cn1)c1ccc(Cl)cc1 [Example 301, methyl [6-({[(1R)-1-(4-chlorophenyl)-propyl]carbamoyl}amino)-1H-pyrazolo[4,3-c]-pyridin-3-yl]-carbamate]"
4,0.9,"COC[C@@H](NC(=O)Nc1cc2[nH]nc(N3CC4CCC(C3)O4)c2cn1)c1ccccc1 [Example 441, 1-[(1S)-2-methoxy-1-phenylethyl]-3-[3-(8-oxa-3-azabicyclo[3.2.1]-oct-3-yl)-1H-pyrazolo[4,3-c]-pyridin-6-yl]urea]"
5,0.6,"C[C@@H](NC(=O)Nc1cc2[nH]nc(NC(=O)Cc3ccccc3)c2cn1)c1ccccc1 [Example 202, 2-phenyl-N-[6-({[(1R)-1-phenylethyl]-carbamoyl}amino)-1H-pyrazolo[4,3-c]pyridin-3-yl]-acetamide]"
6,38.2,"CC(CC1CCCCN1)Nc1n[nH]c2cc(NC(=O)N[C@H](C)c3ccccc3)ncc12 (stereo partly drawn) [Example 176, 1-{3-[(1-methyl-2-piperidin-2-ylethyl)amino]-1H-pyrazolo[4,3-c]pyridin-6-yl}-3-[(1R)-1-phenylethyl]urea]"
7,0.6,"COC[C@@H](NC(=O)Nc1cc2[nH]nc(NC(C)C(F)(F)F)c2cn1)c1ccccc1 (stereo partly drawn) [Example 421, 1-[(1S)-2-methoxy-1-phenylethyl]-3-{3-[(2,2,2-trifluoro-1-methylethyl)-amino]-1H-pyrazolo[4,3-c]-pyridin-6-yl}urea]"
8,1.2,"COC(=O)Nc1n[nH]c2cc(NC(=O)NCc3c(F)cccc3OC)ncc12 [Example 298, methyl (6-{[(2-fluoro-6-methoxy-benzyl)carbamoyl]-amino}-1H-pyrazolo[4,3-c]-pyridin-3-yl)-carbamate]"
9,0.8,"CCNc1n[nH]c2cc(NC(=O)N[C@H](CSC)c3ccccc3)ncc12 [Example 358, 1-[3-(ethylamino)-1H-pyrazolo[4,3-c]pyridin-6-yl]-3-[(1S)-2-(methylsulfanyl)-1-phenylethyl]urea]"
10,495,"Nc1n[nH]c2cc(NC(=O)N[C@H](c3ccccc3)[C@@H]3CCCO3)ncc12 [Example 155, 1-(3-amino-1H-pyrazolo[4,3-c]pyridin-6-yl)-3-{(R)-phenyl[(2S)-tetrahydrofuran-2-yl]methyl}urea]"
11,1.1,"C[C@@H](NC(=O)Nc1cc2[nH]nc3c2c(n1)COC(=O)N3)c1ccccc1 [Example 368, 1-(8-oxo-2,6,8,9-tetrahydro-7-oxa-1,2,5,9-tetraazabenzo[cd]-azulen-4-yl)-3-[(1R)-1-phenylethyl]urea]"
12,2.2,"COCC(=O)Nc1n[nH]c2cc(NC(=O)N[C@H](C)c3ccccc3)ncc12 [Example 318, (R)-2-methoxy-N-(6-(3-(1-phenylethyl)ureido)-1H-pyrazolo[4,3-c]pyridin-3-yl)acetamide]"
13,0.7,"Cc1nc(NC(=O)N[C@H](C)c2ccccc2)cc2[nH]nc(N)c12 [Example 333, (R)-1-(3-amino-4-methyl-1H-pyrazolo[4,3-c]pyridin-6-yl)-3-(1-phenylethyl)urea]"
14,26.4,"COC(=O)Nc1n[nH]c2cc(NC(=O)NC3COc4ccccc4C3)ncc12 (stereo not drawn) [Example 294, methyl {6-[(3,4-dihydro-2H-chromen-3-ylcarbamoyl)amino]-1H-pyrazolo[4,3-c]pyridin-3-yl}-carbamate]"
15,14.9,"CC(C)(O)[C@@H](NC(=O)Nc1cc2[nH]nc(N)c2cn1)c1ccccc1 [Example 425, 1-(3-amino-1H-pyrazolo[4,3-c]-pyridin-6-yl)-3-[(1S)-2-hydroxy-2-methyl-1-phenylpropyl]urea]"
